Laboratory results: PMC5426080, “Catalytic Intermediate Crystal Structures of Cysteine Desulfurase from the Archaeon Thermococcus onnurineus NA1” (Archaea, 2017)

Key:
[1] = biological target: cysteine desulfurase from Thermococcus onnurineus NA1 (Thermococcus onnurineus NA1); test: crystal structure; ToCDS alone (crystal I, NAT, 2.6 Å, space group P212121), a dimer in the asymmetric unit; crystals II-IV soaked or co-crystallised with 5 mM L-cysteine and 1 mM PLP, each with protomers A and B
[2] = biological target: T1, ToCDS (cysteine desulfurase, CDS) (Thermococcus onnurineus, UniProt B6YT87); test: X-ray crystallography; type: binding
T1 construct: gene TON_0289; full length, 399 residues, N-terminal 7xHis-TEV tag (cleavage not mentioned), E. coli BL21(DE3), about 44 kDa, homodimer; PLP on Lys216, catalytic Cys356; EC 2.8.1.7; primers encode N-terminus MIPEDV and C-terminus KGLKT
From the text: X-ray crystallography on ToCDS (cysteine desulfurase, CDS) | PLP was Schiff-base linked with […] at the active site. | the alanine was tightly bound: the conserved […] side chain had bifurcated hydrogen bonds

T1 sequence (B6YT87 entry or part of it): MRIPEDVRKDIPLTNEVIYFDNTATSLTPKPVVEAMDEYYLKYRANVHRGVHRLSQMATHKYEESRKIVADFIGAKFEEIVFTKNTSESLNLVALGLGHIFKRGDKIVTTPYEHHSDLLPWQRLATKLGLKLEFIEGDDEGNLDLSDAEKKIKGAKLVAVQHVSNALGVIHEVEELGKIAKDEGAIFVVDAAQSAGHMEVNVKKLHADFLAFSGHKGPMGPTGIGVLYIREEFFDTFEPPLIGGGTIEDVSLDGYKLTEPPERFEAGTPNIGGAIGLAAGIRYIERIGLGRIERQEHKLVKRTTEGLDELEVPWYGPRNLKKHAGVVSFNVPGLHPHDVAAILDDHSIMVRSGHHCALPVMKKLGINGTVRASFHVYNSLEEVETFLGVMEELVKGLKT

cysteine desulfurase from Thermococcus onnurineus NA1 (enzyme)
stoichiometry N [1]: 2

C[C@H](N)C(=O)O [alanine]
X-ray crystallography ([2]; crystal III 1.5 Å (protomer A: unbonded alanine, internal aldimine; protomer B: gem-diamine) and crystal II 2.3 Å (gem-diamine, covalent to PLP), from L-cysteine and PLP by cocrystallization or soakin): the alanine was tightly bound: the conserved Arg371 side chain had bifurcated hydrogen bonds

Cc1ncc(COP(=O)(O)O)c(C=O)c1O [PLP, pyridoxal 5′-phosphate]
X-ray crystallography ([2]; covalent, internal aldimine Schiff base with Lys216, native crystal I, 2.6 Å, pH 8.5): PLP was Schiff-base linked with Lys216 at the active site.
